# Test: Dissolution rate of pharmaceutical composition in vitro (Korean Pharmacopoeia Method I, basket)
# Assay type: physicochemical
# Conditions: 56 mg dutasteride, 900 mL 1% w/v sodium dodecyl sulfate, 37° C., 100 rpm
# Method: A dissolution rate of the inventive compositions in vitro was identified through the following experiment. Example 32 was filled into a disposable syringe in such an amount that corresponds to 56 mg of dutasteride and then injected into a dissolution medium, and Comparative Example 1 was directly put into a rotating basket in such an amount that corresponds to 56 mg of dutasteride. This experiment was performed according to the dissolution test method I in the 10th revision of the Korean Pharmacopocia and the conditions for dissolution are as follows.
# <Conditions for Dissolution of Pharmaceutical Composition>
# • Dissolution method: Method I of the Korean Pharmacopoeia (Appratus I—Basket) • Dissolution medium: 900 mL of solution containing 1% w/v sodium dodecyl sulfate • Dissolution temperature: 37±0.5° C. • Rotation speed: 100 rpm • Test hour: 1, 3, 6, 12 and 24 hours
# With regard to a concentration of dutasteride in a dissolution sample, a dissolution rate for 24 hours was analyzed with HPLC under the condition of Experimental Example 1 and the results thereof were shown in FIG. 2.
smiles,measurement,setting,value
"C[C@]12C=CC(=O)N[C@@H]1CC[C@@H]1[C@@H]2CC[C@]2(C)[C@@H](C(=O)Nc3cc(C(F)(F)F)ccc3C(F)(F)F)CC[C@@H]12 [Comparative Example 1, dutasteride]",state of dutasteride in the dissolution medium (dissolved / precipitated),,a part of the drug only was dissolved into the dissolution medium
same,dissolution rate with an elapse of time,24 hours,hardly increased with an elapse of time from one hour after
